Columns and labels:
Test in all cases: relative viability (nuclei count vs DMSO), 5 days (fraction); higher = more cells survive
LXF-289 = test system: LXF-289
How it was run: (§1)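 Values are medians from duplicate plates. Each reflects relative viability, defined as the nuclei count of treated wells over that of vehicle wells. Lung cancer cell lines in 1536-well plates were pin-tool dosed one day after seeding with one drug alone or with a fixed anchor-drug dose plus five library-drug doses (not always all listed) in √10 steps, then fixed, stained and imaged at 4× after 5 days.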

NCI-H1666 = test system: NCI-H1666
How it was run: as §1

NCI-H1975 = test system: NCI-H1975
How it was run: as §1

NCI-H2085 = test system: NCI-H2085
How it was run: as §1

NCI-H2126 = test system: NCI-H2126
How it was run: as §1

NCI-H23 = test system: NCI-H23
How it was run: as §1

NCI-H2405 = test system: NCI-H2405
How it was run: as §1

NCI-H3122 = test system: NCI-H3122
How it was run: as §1

RERF-LC-KJ = test system: RERF-LC-KJ
How it was run: as §1

SK-LU-1 = test system: SK-LU-1
How it was run: as §1

SW 1573 = test system: SW 1573
How it was run: as §1

SW 900 = test system: SW 900
How it was run: as §1

Compound `Clc1ccc(Nc2nnc(Cc3ccncc3)c3ccccc23)cc1` [Vatalanib] + O=C(CCCCCCC(=O)Nc1ccccc1)NO [Vorinostat] (partner 1 µM) has a relative viability (LXF-289; first compound 0.4 µM) of 0.801, a relative viability (LXF-289; first compound 1.265 µM) of 0.712 and a relative viability (LXF-289; first compound 4 µM) of 0.75. It also gave a relative viability (NCI-H1666; first compound 0.04 µM) of 0.997, a relative viability (NCI-H1666; first compound 0.1265 µM) of 1.02 and a relative viability (NCI-H1666; first compound 0.4 µM) of 1.03. The relative viability (NCI-H1666; first compound 1.265 µM) was 1.04, the relative viability (NCI-H1666; first compound 4 µM) was 0.908 and the relative viability (NCI-H1975; first compound 0.04 µM) was 0.674. For the same compound, the relative viability (NCI-H1975; first compound 0.1265 µM) was 0.691, the relative viability (NCI-H1975; first compound 0.4 µM) was 0.726 and the relative viability (NCI-H1975; first compound 1.265 µM) was 0.66. It also gave a relative viability (NCI-H1975; first compound 4 µM) of 0.71, a relative viability (NCI-H2085; first compound 0.04 µM) of 0.868 and a relative viability (NCI-H2085; first compound 0.1265 µM) of 0.796. It also gave a relative viability (NCI-H2085; first compound 0.4 µM) of 0.852, a relative viability (NCI-H2085; first compound 1.265 µM) of 0.747 and a relative viability (NCI-H2085; first compound 4 µM) of 0.702. The relative viability (NCI-H2126; first compound 0.04 µM) was 0.704, the relative viability (NCI-H2126; first compound 0.1265 µM) was 0.835 and the relative viability (NCI-H2126; first compound 0.4 µM) was 0.837. The relative viability (NCI-H2126; first compound 1.265 µM) was 0.766, the relative viability (NCI-H2126; first compound 4 µM) was 0.691 and the relative viability (NCI-H23; first compound 0.04 µM) was 0.57. For the same compound, the relative viability (NCI-H23; first compound 0.1265 µM) was 0.558, the relative viability (NCI-H23; first compound 0.4 µM) was 0.77 and the relative viability (NCI-H23; first compound 1.265 µM) was 0.495. The relative viability (NCI-H23; first compound 4 µM) was 0.546, the relative viability (NCI-H2405; first compound 0.04 µM) was 1.09 and the relative viability (NCI-H2405; first compound 0.1265 µM) was 0.938. The relative viability (NCI-H2405; first compound 0.4 µM) was 1.06, the relative viability (NCI-H2405; first compound 4 µM) was 0.976 and the relative viability (NCI-H3122; first compound 0.04 µM) was 1.27. For the same compound, the relative viability (NCI-H3122; first compound 0.1265 µM) was 0.99, the relative viability (NCI-H3122; first compound 0.4 µM) was 0.96 and the relative viability (NCI-H3122; first compound 1.265 µM) was 1.01. The relative viability (NCI-H3122; first compound 4 µM) was 1.12, the relative viability (RERF-LC-KJ; first compound 0.04 µM) was 0.714 and the relative viability (RERF-LC-KJ; first compound 0.1265 µM) was 0.747. The relative viability (RERF-LC-KJ; first compound 0.4 µM) was 0.69, the relative viability (RERF-LC-KJ; first compound 1.265 µM) was 0.665 and the relative viability (RERF-LC-KJ; first compound 4 µM) was 0.651. The relative viability (SK-LU-1; first compound 0.04 µM) was 0.829, the relative viability (SK-LU-1; first compound 0.1265 µM) was 0.798 and the relative viability (SK-LU-1; first compound 0.4 µM) was 1. For the same compound, the relative viability (SK-LU-1; first compound 1.265 µM) was 0.721, the relative viability (SK-LU-1; first compound 4 µM) was 0.8 and the relative viability (SW 1573; first compound 0.1265 µM) was 0.812. The relative viability (SW 1573; first compound 0.4 µM) was 1.4, the relative viability (SW 1573; first compound 1.265 µM) was 0.839 and the relative viability (SW 1573; first compound 4 µM) was 0.624. It also gave a relative viability (SW 900; first compound 0.04 µM) of 0.551, a relative viability (SW 900; first compound 0.1265 µM) of 0.549 and a relative viability (SW 900; first compound 0.4 µM) of 0.583. It also gave a relative viability (SW 900; first compound 1.265 µM) of 0.344 and a relative viability (SW 900; first compound 4 µM) of 0.591.

— the supplement of paper PMC10307832
